Like-named read-outs stand apart in the source and are kept apart here.
How the values were obtained:
[1] = system: IL-23-stimulated Kit225 T cells with STAT-dependent luciferase reporter; test: Kit225 T cell assay, IL-23 stimulated STAT-dependent luciferase reporter; assay type: cell-based, human
Description: (§1) Kit225 T cells with a stably-integrated STAT-dependent luciferase reporter were plated in RPMI (GIBCO) containing 10% heat-inactivated FBS (GIBCO) and 100 U/mL PenStrep (GIBCO). The cells were then stimulated with either 20 ng/mL human recombinant IL-23 or 200 U/mL human recombinant IFNα (PBL InterferonSource) for 5-6 hours. Luciferase expression was measured using the STEADY-GLO® Luciferase Assay System (PROMEGA®) according to the manufacturer's instructions.

[2] = target: T1, recombinantly expressed His-tagged protein corresponding to amino acids 575-869 of human Tyk2 (Homo sapiens, UniProt P29597); test: Probe displacement assay (scintillation proximity, radiolabeled probe); assay type: binding
T1 construct: made in house
Description: The probe displacement assay is conducted as follows: In a […], test compounds along with recombinantly expressed His-tagged protein corresponding to amino acids 575-869 of human Tyk2 (sequence shown below) at 2.5 nM, 40 nM ((R)—N-(1-(3-(8-methyl-5-(methylamino)-8H-imidazo[4,5-d]thiazolo[5,4-b]pyridin-2-yl)phenyl)ethyl)-2-([^3H]methylsulfonyl)benzamide) (preparation described below) and 80 μg/mL Copper His-Tag scintillation proximity assay beads (Perkin Elmer, Catalog #RPNQ0095) in 50 mM HEPES, pH 7.5, containing 100 μg/mL bovine serum albumin and 5% DMSO were incubated for 30 minutes at room temperature. […] The IC50 value is defined as the concentration of test compound required to inhibit radiolabeled probe binding by 50%.
Protein Sequence of recombinant Hig-tagged Tyk2 (575-869):
The preparation of radiolabeled probe, (R)—N-(1-(3-(8-methyl-5-(methylamino)-8H-imidazo[4,5-d]thiazolo[5,4-b]pyridin-2-yl)phenyl)ethyl)-2-([^3H]methylsulfonyl)benzamide, was performed as described below: […]

[3] = system: IFNα-stimulated Kit225 T cells with STAT-dependent luciferase reporter; test: Kit225 T cell assay, IFNα stimulated STAT-dependent luciferase reporter; assay type: cell-based, human
Description: as §1

[4] = Homo sapiens, KIT225, read-out: IL-23 Kit225 Reporter, LE (IC50, uM)
[5] = Homo sapiens, KIT225, read-out: IFNa Kit225 Reporter, LE (IC50, uM)

T1 sequence (P29597 with tags, fused parts or gaps): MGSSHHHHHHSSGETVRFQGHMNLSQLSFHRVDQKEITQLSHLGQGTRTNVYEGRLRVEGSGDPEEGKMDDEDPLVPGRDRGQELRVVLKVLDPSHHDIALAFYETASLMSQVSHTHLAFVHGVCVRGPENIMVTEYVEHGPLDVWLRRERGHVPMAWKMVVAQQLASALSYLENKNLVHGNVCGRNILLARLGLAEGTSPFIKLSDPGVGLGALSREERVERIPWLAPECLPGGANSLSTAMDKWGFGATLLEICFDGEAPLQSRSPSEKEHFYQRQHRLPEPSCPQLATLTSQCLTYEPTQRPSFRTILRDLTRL

CNC(=O)c1cc(Nc2cc(NC)c3ncc(C(=O)NC4CC4)n3n2)n(C)n1 [Example 39, N-cyclopropyl-6-((1-methyl-3-(methylcarbamoyl)-1H-pyrazol-5-yl)amino)-8-(methylamino)imidazo[1,2-b]pyridazine-3-carboxamide]
IC50 [1, 4]: 12.5 µM
EC50 [2]: 1270 nM
IC50 [3, 5]: 12.5 µM

CNc1cc(Nc2cc(C(=O)Nc3ccccc3)nn2C)nn2c(C(=O)NC3CC3)cnc12 [Example 40]
IC50 [1, 4]: 12.5 µM
EC50 [2]: 80 nM
IC50 [3, 5]: 12.5 µM

CNC(=O)c1cc(Nc2cc(NC)c3ncc(C(=O)NC4CC4)n3n2)nn1C [Example 41, N-cyclopropyl-6-((1-methyl-5-(methylcarbamoyl)-1H-pyrazol-3-yl)amino)-8-(methylamino)imidazo[1,2-b]pyridazine-3-carboxamide]
IC50 [1, 4]: 12.5 µM
EC50 [2]: 30 nM
IC50 [3, 5]: 12.5 µM

CNc1cc(Nc2cc(C(=O)Nc3ccccc3)n(C)n2)nn2c(C(=O)NC3CC3)cnc12 [Example 42]
IC50 [1, 4]: 12.5 µM
EC50 [2]: 360 nM
IC50 [3, 5]: 12.5 µM

CNC(=O)c1sccc1Nc1cc(NC)c2ncc(C(=O)NC3CC3)n2n1 [Example 43, N-cyclopropyl-8-(methylamino)-6-((2-(methylcarbamoyl)thiophen-3-yl)amino)imidazo[1,2-b]pyridazine-3-carboxamide]
IC50 [1, 4]: 16.1 µM
EC50 [2]: 490 nM
IC50 [3, 5]: 12.5 µM

CNc1cc(Nc2ccsc2C(=O)NC(C)C)nn2c(C(=O)NC3CC3)cnc12 [Example 44]
IC50 [1, 4]: 0.14 µM
EC50 [2]: 10 nM
IC50 [3, 5]: 0.07 µM

CNc1cc(Nc2ccsc2C(=O)Nc2ccc(F)cc2)nn2c(C(=O)NC3CC3)cnc12 [Example 45]
IC50 [1, 4]: 0.22 µM
EC50 [2]: 20 nM
IC50 [3, 5]: 0.13 µM

CNc1cc(Nc2ccsc2C(=O)Nc2cccnc2)nn2c(C(=O)NC3CC3)cnc12 [Example 46]
IC50 [1, 4]: 0.1 µM
EC50 [2]: 8 nM
IC50 [3, 5]: 0.12 µM

[2H]C([2H])([2H])NC(=O)c1sccc1Nc1cc(NC)c2ncc(C(=O)NC3CC3)n2n1 [Example 47]
IC50 [1, 4]: 0.06 µM
EC50 [2]: 5.13 nM
IC50 [3, 5]: 0.05 µM

[2H]C([2H])([2H])NC(=O)c1sccc1Nc1cc(NC)c2ncc(C(=O)NCCOC)n2n1 [Example 48]
IC50 [1, 4]: 0.15 µM
EC50 [2]: 20 nM
IC50 [3, 5]: 0.08 µM

[2H]C([2H])([2H])NC(=O)c1sccc1Nc1cc(NC)c2ncc(C(=O)NCCO)n2n1 [Example 49]
IC50 [1, 4]: 0.27 µM
EC50 [2]: 40 nM
IC50 [3, 5]: 0.26 µM

[2H]C([2H])([2H])NC(=O)c1sccc1Nc1cc(NC)c2ncc(C(=O)NC3CCC3)n2n1 [Example 50]
IC50 [1, 4]: 0.45 µM
EC50 [2]: 30 nM
IC50 [3, 5]: 1 µM

CNC(=O)c1occc1Nc1cc(NC)c2ncc(C(=O)NC3CC3)n2n1 [Example 51, N-cyclopropyl-8-(methylamino)-6-((2-(methylcarbamoyl)furan-3-yl)amino)imidazo[1,2-b]pyridazine-3-carboxamide]
IC50 [1, 4]: 0.05 µM
EC50 [2]: 3.79 nM
IC50 [3, 5]: 0.04 µM

CCNC(=O)c1occc1Nc1cc(NC)c2ncc(C(=O)NC3CC3)n2n1 [Example 52]
IC50 [1, 4]: 0.1 µM
EC50 [2]: 6.73 nM
IC50 [3, 5]: 0.06 µM

[2H]C([2H])([2H])NC(=O)c1occc1Nc1cc(NC)c2ncc(C(=O)NC3CC3)n2n1 [Example 53]
IC50 [1, 4]: 0.06 µM
EC50 [2]: 2.82 nM
IC50 [3, 5]: 0.07 µM

CNc1cc(Nc2ccoc2C(=O)NC(C)C)nn2c(C(=O)NC3CC3)cnc12 [Example 54]
IC50 [1, 4]: 0.17 µM
EC50 [2]: 6.06 nM
IC50 [3, 5]: 0.05 µM

CNc1cc(Nc2ccoc2C(=O)Nc2ccc(OC)nc2)nn2c(C(=O)NC3CC3)cnc12 [Example 55]
IC50 [1, 4]: 0.06 µM
EC50 [2]: 2.87 nM
IC50 [3, 5]: 0.03 µM

CNc1cc(Nc2ccoc2C(=O)Nc2ccc(F)cc2)nn2c(C(=O)NC3CC3)cnc12 [Example 56]
IC50 [1, 4]: 0.03 µM
EC50 [2]: 2.08 nM
IC50 [3, 5]: 0.02 µM

CNc1cc(Nc2ccoc2C(=O)Nc2cccnc2)nn2c(C(=O)NC3CC3)cnc12 [Example 58]
IC50 [1, 4]: 0.15 µM
EC50 [2]: 3.61 nM
IC50 [3, 5]: 0.11 µM

CNC(=O)c1nscc1Nc1cc(NC)c2ncc(C(=O)NC3CC3)n2n1 [Example 59, 4-((3-(cyclopropylcarbamoyl)-8-(methylamino)imidazo[1,2-b]pyridazin-6-yl)amino)-N-methylisothiazole-3-carboxamide]
IC50 [1, 4]: 0.01 µM
EC50 [2]: 1.93 nM
IC50 [3, 5]: 0.03 µM

CNc1cc(Nc2csnc2C(=O)Nc2ccccc2)nn2c(C(=O)NC3CC3)cnc12 [Example 60]
IC50 [1, 4]: 0.211 µM
EC50 [2]: 2.69 nM
IC50 [3, 5]: 0.0662 µM

CCNC(=O)c1nscc1Nc1cc(NC)c2ncc(C(=O)NC3CC3)n2n1 [Example 62]
IC50 [1, 4]: 0.54 µM
EC50 [2]: 9.3 nM
IC50 [3, 5]: 0.18 µM

CNc1cc(Nc2csnc2C(=O)N[C@@H]2C[C@@H]2F)nn2c(C(=O)NC3CC3)cnc12 [Example 64]
IC50 [1, 4]: 0.08 µM
EC50 [2]: 1.99 nM
IC50 [3, 5]: 0.06 µM

CNc1cc(Nc2csnc2C(=O)Nc2ccc(F)cc2)nn2c(C(=O)NC3CC3)cnc12 [Example 66]
IC50 [1, 4]: 0.4 µM
EC50 [2]: 10 nM
IC50 [3, 5]: 0.11 µM

[2H]C([2H])([2H])NC(=O)c1nscc1Nc1cc(NC)c2ncc(C(=O)NC3CCC3)n2n1 [Example 67]
IC50 [1, 4]: 0.47 µM
EC50 [2]: 40 nM
IC50 [3, 5]: 0.23 µM

[2H]C([2H])([2H])NC(=O)c1nscc1Nc1cc(NC)c2ncc(C(=O)N[C@@H]3C[C@@H]3F)n2n1 [Example 68]
IC50 [1, 4]: 0.14 µM
EC50 [2]: 2.78 nM
IC50 [3, 5]: 0.05 µM

[2H]C([2H])([2H])NC(=O)c1nscc1Nc1cc(NC)c2ncc(C(=O)NCCOC)n2n1 [Example 69]
IC50 [1, 4]: 0.05 µM
EC50 [2]: 2.29 nM
IC50 [3, 5]: 0.01 µM

[2H]C([2H])([2H])NC(=O)c1nscc1Nc1cc(NC)c2ncc(C(=O)NCc3nccs3)n2n1 [Example 70]
IC50 [1, 4]: 0.42 µM
EC50 [2]: 20 nM
IC50 [3, 5]: 0.11 µM

CCNC(=O)c1nscc1Nc1cc(NC)c2ncc(C(=O)NC3CCC3)n2n1 [Example 71]
IC50 [1, 4]: 0.2 µM
EC50 [2]: 8.09 nM
IC50 [3, 5]: 0.21 µM

CCNC(=O)c1nscc1Nc1cc(NC)c2ncc(C(=O)NCCOC)n2n1 [Example 72]
IC50 [1, 4]: 0.14 µM
EC50 [2]: 5.78 nM
IC50 [3, 5]: 0.07 µM

CCNC(=O)c1nscc1Nc1cc(NC)c2ncc(C(=O)N[C@@H]3C[C@@H]3F)n2n1 [Example 73]
IC50 [1, 4]: 0.16 µM
EC50 [2]: 20 nM
IC50 [3, 5]: 0.2 µM

CCNC(=O)c1nscc1Nc1cc(NC)c2ncc(C(=O)NC(CO)CO)n2n1 [Example 74]
IC50 [1, 4]: 0.07 µM
EC50 [2]: 7.25 nM
IC50 [3, 5]: 0.02 µM

CCNC(=O)c1nscc1Nc1cc(NC)c2ncc(C(=O)NCc3nccs3)n2n1 [Example 75]
IC50 [1, 4]: 3.31 µM
EC50 [2]: 10 nM
IC50 [3, 5]: 2.29 µM

CNC(=O)c1ncsc1Nc1cc(NC)c2ncc(C(=O)NC3CC3)n2n1 [Example 77]
IC50 ([1]; Kit225 T cells, 20 ng/mL human recombinant IL-23, 5-6 hours, luciferase, read-out: IL-23 Kit225 Reporter, LE (IC50)): 0.57 µM
EC50 ([2]; 2.5 nM Tyk2 (575-869), 40 nM [3H] probe, 30 minutes at room temperature, read-out: Probe Displacement EC50): 20 nM
IC50 ([3]; Kit225 T cells, 200 U/mL human recombinant IFNα, 5-6 hours, luciferase, read-out: IFNa Kit225 Reporter, LE (IC50)): 0.22 µM

CNC(=O)c1ncsc1Nc1cc(NC)c2ncc(C(=O)NC3CC3)n2n1 [Example 78, 5-((3-(cyclopropylcarbamoyl)-8-(methylamino)imidazo[1,2-b]pyridazin-6-yl)amino)-N-methylthiazole-4-carboxamide]
IC50 [1, 4]: 0.12 µM
EC50 [2]: 10 nM
IC50 [3, 5]: 0.26 µM

CCNC(=O)c1ncsc1Nc1cc(NC)c2ncc(C(=O)NC3CC3)n2n1 [Example 79]
IC50 [1, 4]: 0.32 µM
EC50 [2]: 20 nM
IC50 [3, 5]: 0.15 µM

CCCNC(=O)c1ncsc1Nc1cc(NC)c2ncc(C(=O)NC3CC3)n2n1 [Example 80]
IC50 [1, 4]: 0.14 µM
EC50 [2]: 20 nM
IC50 [3, 5]: 0.13 µM

CNc1cc(Nc2scnc2C(=O)NC(C)C)nn2c(C(=O)NC3CC3)cnc12 [Example 81]
IC50 [1, 4]: 0.3 µM
EC50 [2]: 3.24 nM
IC50 [3, 5]: 0.31 µM

CNc1cc(Nc2scnc2C(=O)Nc2ccccc2)nn2c(C(=O)NC3CC3)cnc12 [Example 82]
IC50 [1, 4]: 0.19 µM
EC50 [2]: 3.95 nM
IC50 [3, 5]: 0.35 µM

CNc1cc(Nc2scnc2C(=O)Nc2cccnc2)nn2c(C(=O)NC3CC3)cnc12 [Example 83]
IC50 [1, 4]: 0.16 µM
EC50 [2]: 10 nM
IC50 [3, 5]: 1.76 µM

CNC(=O)c1nc(C)sc1Nc1cc(NC)c2ncc(C(=O)NC3CC3)n2n1 [Example 84, 5-((3-(cyclopropylcarbamoyl)-8-(methylamino)imidazo[1,2-b]pyridazin-6-yl)amino)-N,2-dimethylthiazole-4-carboxamide]
IC50 [1, 4]: 0.11 µM
EC50 [2]: 4.51 nM
IC50 [3, 5]: 0.18 µM
